How the values were obtained:
Test in all cases: radiometric filter-binding kinase assay, Kinase HotSpot
Conditions in all cases: compound 0.5 µM; ATP 10 µM
[1] = molecular target: ACVRL1 (human) (UniProt P37023)
[2] = molecular target: ADRBK1 (human) (UniProt P25098)
[3] = molecular target: AKT2 (human) (UniProt P31751)
[4] = molecular target: AXL (human) (UniProt P30530)
[5] = molecular target: BTK (human) (UniProt Q06187)
[6] = molecular target: CAMK1D (human) (UniProt Q8IU85)
[7] = molecular target: CAMK2G (human) (UniProt Q13555)
[8] = molecular target: CDK2 CCNE1 (human) (UniProt P24941+P24864)
[9] = molecular target: CDK7 CCNH MNAT1 (human) (UniProt P50613+P51948+P51946)
[10] = molecular target: CDK9 CCNK (human) (UniProt O75909+P50750)
[11] = molecular target: CHUK (human) (UniProt O15111)
[12] = molecular target: CSF1R (human) (UniProt P07333)
[13] = molecular target: DAPK2 (human) (UniProt Q9UIK4)
[14] = molecular target: DSTYK (human) (UniProt Q6XUX3)
[15] = molecular target: DYRK1A (human) (UniProt Q13627)
[16] = molecular target: DYRK2 (human) (UniProt Q92630)
[17] = molecular target: ERBB4 (human) (UniProt Q15303)
[18] = molecular target: FES (human) (UniProt P07332)
FES (human), sequence (P07332 whole entry, looked up): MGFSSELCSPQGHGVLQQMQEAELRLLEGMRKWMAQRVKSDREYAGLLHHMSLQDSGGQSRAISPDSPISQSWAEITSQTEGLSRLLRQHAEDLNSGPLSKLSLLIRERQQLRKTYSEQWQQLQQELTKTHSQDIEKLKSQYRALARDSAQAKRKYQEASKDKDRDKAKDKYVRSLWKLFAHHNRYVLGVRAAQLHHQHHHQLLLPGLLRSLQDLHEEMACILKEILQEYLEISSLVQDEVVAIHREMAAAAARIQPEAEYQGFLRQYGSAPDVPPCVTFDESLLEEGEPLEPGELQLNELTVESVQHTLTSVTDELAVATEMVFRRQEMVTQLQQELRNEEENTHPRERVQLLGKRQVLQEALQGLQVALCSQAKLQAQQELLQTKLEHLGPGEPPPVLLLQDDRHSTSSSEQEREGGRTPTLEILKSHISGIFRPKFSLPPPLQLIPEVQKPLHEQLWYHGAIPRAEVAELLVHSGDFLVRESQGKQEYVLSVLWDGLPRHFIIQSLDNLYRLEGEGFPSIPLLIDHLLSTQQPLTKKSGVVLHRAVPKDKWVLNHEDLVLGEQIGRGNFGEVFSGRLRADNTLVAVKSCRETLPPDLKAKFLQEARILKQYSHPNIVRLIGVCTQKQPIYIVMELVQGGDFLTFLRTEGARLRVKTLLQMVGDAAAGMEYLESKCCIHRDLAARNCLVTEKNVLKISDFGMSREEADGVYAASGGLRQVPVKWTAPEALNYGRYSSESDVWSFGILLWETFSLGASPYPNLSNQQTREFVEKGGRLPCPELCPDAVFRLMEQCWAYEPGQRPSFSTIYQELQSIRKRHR

[19] = molecular target: FGFR4 (human) (UniProt P22455)
[20] = molecular target: INSRR (human) (UniProt P14616)
[21] = molecular target: ITK (human) (UniProt Q08881)
[22] = molecular target: JAK2 JH1 JH2 (human) (UniProt O60674)
[23] = molecular target: LTK (human) (UniProt P29376)
LTK (human), sequence (P29376 whole entry, looked up): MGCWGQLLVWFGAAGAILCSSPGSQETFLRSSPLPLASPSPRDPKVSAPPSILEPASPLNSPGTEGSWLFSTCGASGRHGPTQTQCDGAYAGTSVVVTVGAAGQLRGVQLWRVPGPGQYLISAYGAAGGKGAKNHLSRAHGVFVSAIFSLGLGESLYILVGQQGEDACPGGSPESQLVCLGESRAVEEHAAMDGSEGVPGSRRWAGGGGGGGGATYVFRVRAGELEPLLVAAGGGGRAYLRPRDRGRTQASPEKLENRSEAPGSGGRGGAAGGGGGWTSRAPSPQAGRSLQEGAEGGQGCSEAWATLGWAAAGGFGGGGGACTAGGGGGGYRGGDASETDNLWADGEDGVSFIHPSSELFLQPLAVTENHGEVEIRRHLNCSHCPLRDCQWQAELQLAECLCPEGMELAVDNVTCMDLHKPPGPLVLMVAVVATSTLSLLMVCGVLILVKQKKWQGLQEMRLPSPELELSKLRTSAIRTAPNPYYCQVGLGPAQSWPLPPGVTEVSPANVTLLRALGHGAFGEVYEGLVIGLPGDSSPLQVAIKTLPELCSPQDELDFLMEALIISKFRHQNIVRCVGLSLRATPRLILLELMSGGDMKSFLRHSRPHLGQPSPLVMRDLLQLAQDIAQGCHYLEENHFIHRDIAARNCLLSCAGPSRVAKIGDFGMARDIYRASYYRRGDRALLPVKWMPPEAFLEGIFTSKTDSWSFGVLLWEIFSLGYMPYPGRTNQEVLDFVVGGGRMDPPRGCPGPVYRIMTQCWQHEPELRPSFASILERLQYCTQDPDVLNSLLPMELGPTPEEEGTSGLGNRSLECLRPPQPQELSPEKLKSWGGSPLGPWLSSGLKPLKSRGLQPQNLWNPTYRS

[24] = molecular target: MAPK11 (human) (UniProt Q15759)
[25] = molecular target: MAPK14 (human) (UniProt Q16539)
[26] = molecular target: MINK1 (human) (UniProt Q8N4C8)
MINK1 (human), sequence (Q8N4C8 whole entry, looked up): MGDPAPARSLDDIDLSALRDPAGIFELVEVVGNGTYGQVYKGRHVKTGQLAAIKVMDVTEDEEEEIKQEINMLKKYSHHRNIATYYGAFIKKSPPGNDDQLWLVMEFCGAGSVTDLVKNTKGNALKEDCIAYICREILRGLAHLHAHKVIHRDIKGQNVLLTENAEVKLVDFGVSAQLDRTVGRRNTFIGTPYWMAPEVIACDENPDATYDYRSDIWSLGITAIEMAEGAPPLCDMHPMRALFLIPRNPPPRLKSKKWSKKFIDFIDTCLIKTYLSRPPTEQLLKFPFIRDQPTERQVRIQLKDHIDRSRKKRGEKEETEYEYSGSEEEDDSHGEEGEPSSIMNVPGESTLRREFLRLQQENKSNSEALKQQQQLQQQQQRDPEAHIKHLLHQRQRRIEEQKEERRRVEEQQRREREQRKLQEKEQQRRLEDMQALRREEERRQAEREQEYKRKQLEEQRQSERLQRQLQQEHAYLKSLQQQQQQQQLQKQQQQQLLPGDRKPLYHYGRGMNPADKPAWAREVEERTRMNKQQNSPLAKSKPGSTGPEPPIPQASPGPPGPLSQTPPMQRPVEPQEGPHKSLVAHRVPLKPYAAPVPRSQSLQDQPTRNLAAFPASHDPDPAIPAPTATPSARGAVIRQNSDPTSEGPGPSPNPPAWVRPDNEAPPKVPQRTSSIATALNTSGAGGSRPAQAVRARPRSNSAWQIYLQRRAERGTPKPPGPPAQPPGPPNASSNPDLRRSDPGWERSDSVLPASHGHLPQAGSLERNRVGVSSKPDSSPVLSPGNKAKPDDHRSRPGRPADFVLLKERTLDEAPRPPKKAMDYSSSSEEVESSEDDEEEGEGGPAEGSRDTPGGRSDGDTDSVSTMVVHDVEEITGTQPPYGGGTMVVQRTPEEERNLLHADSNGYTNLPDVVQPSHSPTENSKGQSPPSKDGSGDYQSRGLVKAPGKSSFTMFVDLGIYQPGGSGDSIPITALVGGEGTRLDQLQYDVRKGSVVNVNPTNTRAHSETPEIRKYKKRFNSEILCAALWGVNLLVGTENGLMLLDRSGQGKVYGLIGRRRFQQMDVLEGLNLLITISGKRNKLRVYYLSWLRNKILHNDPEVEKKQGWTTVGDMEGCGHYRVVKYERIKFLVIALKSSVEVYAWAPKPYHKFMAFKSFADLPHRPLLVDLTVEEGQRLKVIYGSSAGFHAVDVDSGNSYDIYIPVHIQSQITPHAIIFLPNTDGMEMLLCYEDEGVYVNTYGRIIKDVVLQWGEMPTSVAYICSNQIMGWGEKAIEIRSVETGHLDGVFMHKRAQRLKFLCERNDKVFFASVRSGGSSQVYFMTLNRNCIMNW

[27] = molecular target: MST4 (human) (UniProt Q9P289)
MST4 (human), sequence (Q9P289 whole entry, looked up): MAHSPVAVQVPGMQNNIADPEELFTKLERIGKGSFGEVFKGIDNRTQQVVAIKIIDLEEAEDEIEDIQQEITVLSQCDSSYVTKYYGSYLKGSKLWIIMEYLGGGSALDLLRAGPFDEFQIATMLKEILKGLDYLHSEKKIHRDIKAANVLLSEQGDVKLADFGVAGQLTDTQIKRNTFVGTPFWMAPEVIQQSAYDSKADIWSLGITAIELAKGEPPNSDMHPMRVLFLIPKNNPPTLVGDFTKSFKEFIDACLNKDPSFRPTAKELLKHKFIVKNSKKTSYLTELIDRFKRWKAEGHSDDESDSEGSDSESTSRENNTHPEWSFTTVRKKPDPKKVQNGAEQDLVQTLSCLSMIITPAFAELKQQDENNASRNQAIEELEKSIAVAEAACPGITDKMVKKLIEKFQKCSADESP

[28] = molecular target: MYLK (human) (UniProt Q15746)
[29] = molecular target: NEK4 (human) (UniProt P51957)
[30] = molecular target: NEK9 (human) (UniProt Q8TD19)
[31] = molecular target: PAK7 (human) (UniProt Q9P286)
PAK7 (human), sequence (Q9P286 whole entry, looked up): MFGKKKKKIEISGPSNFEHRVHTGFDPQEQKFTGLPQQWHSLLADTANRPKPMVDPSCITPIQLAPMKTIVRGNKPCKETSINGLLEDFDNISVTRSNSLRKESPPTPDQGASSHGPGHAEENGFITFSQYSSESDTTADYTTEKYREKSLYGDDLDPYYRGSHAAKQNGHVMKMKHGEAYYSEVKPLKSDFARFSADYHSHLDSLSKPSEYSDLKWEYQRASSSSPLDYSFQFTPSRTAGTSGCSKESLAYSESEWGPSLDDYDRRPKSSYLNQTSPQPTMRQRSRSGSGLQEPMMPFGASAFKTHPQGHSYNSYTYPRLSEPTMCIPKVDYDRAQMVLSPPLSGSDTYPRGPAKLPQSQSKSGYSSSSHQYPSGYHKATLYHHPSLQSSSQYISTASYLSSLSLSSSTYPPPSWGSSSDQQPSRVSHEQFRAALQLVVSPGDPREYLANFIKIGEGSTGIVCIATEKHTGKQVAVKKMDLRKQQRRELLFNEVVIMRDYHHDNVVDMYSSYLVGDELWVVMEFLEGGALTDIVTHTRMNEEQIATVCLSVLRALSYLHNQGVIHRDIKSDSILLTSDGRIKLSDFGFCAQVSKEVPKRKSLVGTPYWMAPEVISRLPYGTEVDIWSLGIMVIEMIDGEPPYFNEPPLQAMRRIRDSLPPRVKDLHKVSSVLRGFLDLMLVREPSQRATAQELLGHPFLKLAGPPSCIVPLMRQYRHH

[32] = molecular target: PIM3 (human) (UniProt Q86V86)
[33] = molecular target: PTK6 (human) (UniProt Q13882)
[34] = molecular target: RAF1 (human) (UniProt P04049)
[35] = molecular target: SRPK3 (human) (UniProt Q9UPE1)
[36] = molecular target: STK10 (human) (UniProt O94804)
[37] = molecular target: STK3 (human) (UniProt Q13188)
[38] = molecular target: STK4 (human) (UniProt Q13043)
[39] = molecular target: SYK (human) (UniProt P43405)
[40] = molecular target: TAOK3 (human) (UniProt Q9H2K8)
[41] = molecular target: TEK (human) (UniProt Q02763)
[42] = molecular target: ULK2 (human) (UniProt Q8IYT8)

AKT2 (human), sequence (P31751 whole entry, looked up): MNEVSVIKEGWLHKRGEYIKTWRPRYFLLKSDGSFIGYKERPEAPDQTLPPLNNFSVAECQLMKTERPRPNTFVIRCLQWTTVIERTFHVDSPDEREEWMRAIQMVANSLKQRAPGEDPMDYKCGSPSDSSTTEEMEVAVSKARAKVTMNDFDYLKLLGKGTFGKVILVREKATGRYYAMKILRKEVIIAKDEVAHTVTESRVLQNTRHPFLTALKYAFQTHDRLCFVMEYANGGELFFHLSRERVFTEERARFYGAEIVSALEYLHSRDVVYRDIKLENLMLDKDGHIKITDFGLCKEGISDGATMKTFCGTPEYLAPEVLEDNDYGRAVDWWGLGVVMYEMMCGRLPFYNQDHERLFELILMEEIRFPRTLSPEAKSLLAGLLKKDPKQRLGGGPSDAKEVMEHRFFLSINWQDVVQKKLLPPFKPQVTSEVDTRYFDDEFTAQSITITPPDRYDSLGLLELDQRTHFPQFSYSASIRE

With `O=C(Nc1ccc(Cl)cc1)c1ccccc1NCc1ccncc1` the residual activity [1] was 98.9%, the residual activity [2] was 98.2% and the residual activity [3] was 95.2%. For the same compound, the residual activity [4] was 98.1%, the residual activity [5] was 98.9% and the residual activity [6] was 95.3%. It also gave a residual activity [7] of 89.2%, a residual activity [8] of 94.3% and a residual activity [9] of 95.1%. For the same compound, the residual activity [10] was 95.5%, the residual activity [11] was 104% and the residual activity [12] was 18.4%. The residual activity [13] was 98.4%, the residual activity [14] was 94.7% and the residual activity [15] was 97.1%. For the same compound, the residual activity [16] was 96%, the residual activity [17] was 71.3% and the residual activity [18] was 96.6%. It also gave a residual activity [19] of 84.1%, a residual activity [20] of 96.1% and a residual activity [21] of 94.1%. It also gave a residual activity [22] of 96.5%, a residual activity [23] of 104% and a residual activity [24] of 91.4%. The residual activity [25] was 128%, the residual activity [26] was 96.9% and the residual activity [27] was 90.9%. It also gave a residual activity [28] of 105%, a residual activity [29] of 85.8% and a residual activity [30] of 91.2%. It also gave a residual activity [31] of 79.4%, a residual activity [32] of 93% and a residual activity [33] of 63.6%. It also gave a residual activity [34] of 62.6%, a residual activity [35] of 100% and a residual activity [36] of 81.8%. For the same compound, the residual activity [37] was 94.2%, the residual activity [38] was 98.7% and the residual activity [39] was 93.6%. For the same compound, the residual activity [40] was 94.1%, the residual activity [41] was 92.4% and the residual activity [42] was 104%.

`COc1ccc(-c2cnc3c(-c4ccsc4)cnn3c2)cc1` showed a residual activity [1] of 76.4%, a residual activity [2] of 100% and a residual activity [3] of 93.3%. For the same compound, the residual activity [4] was 96.7%, the residual activity [5] was 97.1% and the residual activity [6] was 93.5%. For the same compound, the residual activity [7] was 93.7%, the residual activity [8] was 82.8% and the residual activity [9] was 100%. It also gave a residual activity [10] of 76.9%, a residual activity [11] of 94.5% and a residual activity [12] of 53.6%. It also gave a residual activity [13] of 87.4%, a residual activity [14] of 97.6% and a residual activity [15] of 69.7%. The residual activity [16] was 71.1%, the residual activity [17] was 94.2% and the residual activity [18] was 98.2%. It also gave a residual activity [19] of 89.2%, a residual activity [20] of 98.7% and a residual activity [21] of 95.2%. For the same compound, the residual activity [22] was 98.4%, the residual activity [23] was 98.9% and the residual activity [24] was 84.1%. It also gave a residual activity [25] of 120%, a residual activity [26] of 63.7% and a residual activity [27] of 95.7%. It also gave a residual activity [28] of 102%, a residual activity [29] of 80% and a residual activity [30] of 90.3%. The residual activity [31] was 78.1%, the residual activity [32] was 100% and the residual activity [33] was 77.5%. For the same compound, the residual activity [34] was 95.5%, the residual activity [35] was 94.1% and the residual activity [36] was 81.6%. It also gave a residual activity [37] of 97.7%, a residual activity [38] of 97.3% and a residual activity [39] of 101%. The residual activity [40] was 96.9%, the residual activity [41] was 99.1% and the residual activity [42] was 103%.

`CC(C)[C@H](CO)Nc1nc(Nc2cccc(Cl)c2)c2ncn(C(C)C)c2n1` gave a residual activity [1] of 96.7%, a residual activity [2] of 103% and a residual activity [3] of 90%. It also gave a residual activity [4] of 94.7%, a residual activity [5] of 75.6% and a residual activity [6] of 103%. For the same compound, the residual activity [7] was 96.9%, the residual activity [8] was 9.88% and the residual activity [9] was 59.5%. It also gave a residual activity [10] of 63.6%, a residual activity [11] of 106% and a residual activity [12] of 96.9%. For the same compound, the residual activity [13] was 111%, the residual activity [14] was 105% and the residual activity [15] was 65.4%. The residual activity [16] was 98.4%, the residual activity [17] was 78.4% and the residual activity [18] was 95.9%. The residual activity [19] was 79%, the residual activity [20] was 88.2% and the residual activity [21] was 86.9%. It also gave a residual activity [22] of 97.7%, a residual activity [23] of 100% and a residual activity [24] of 109%. For the same compound, the residual activity [25] was 99.4%, the residual activity [26] was 98.6% and the residual activity [27] was 100%. It also gave a residual activity [28] of 95.1%, a residual activity [29] of 94.4% and a residual activity [30] of 93.1%. It also gave a residual activity [31] of 76.8%, a residual activity [32] of 84.9% and a residual activity [33] of 89.2%. For the same compound, the residual activity [34] was 98.9%, the residual activity [35] was 70.4% and the residual activity [36] was 81.8%. The residual activity [37] was 90.8%, the residual activity [38] was 87.7% and the residual activity [39] was 88.9%. The residual activity [40] was 91.1%, the residual activity [41] was 93.8% and the residual activity [42] was 97.7%.

With `Nc1n[nH]c2nnc(-c3c(-c4ccccc4)nn4ccccc34)cc12` the residual activity [1] was 106%, the residual activity [2] was 95% and the residual activity [3] was 97.5%. For the same compound, the residual activity [4] was 99.1%, the residual activity [5] was 93.6% and the residual activity [6] was 95.9%. For the same compound, the residual activity [7] was 96.7%, the residual activity [8] was 101% and the residual activity [9] was 99%. It also gave a residual activity [10] of 98.5%, a residual activity [11] of 97.5% and a residual activity [12] of 96.8%. For the same compound, the residual activity [13] was 103%, the residual activity [14] was 95.9% and the residual activity [15] was 102%. It also gave a residual activity [16] of 103%, a residual activity [17] of 91.4% and a residual activity [18] of 97.8%. For the same compound, the residual activity [19] was 104%, the residual activity [20] was 95.7% and the residual activity [21] was 90.8%. It also gave a residual activity [22] of 97.1%, a residual activity [23] of 90.5% and a residual activity [24] of 90%. It also gave a residual activity [25] of 94.6%, a residual activity [26] of 73% and a residual activity [27] of 75.9%. For the same compound, the residual activity [28] was 98.3%, the residual activity [29] was 88.4% and the residual activity [30] was 93.4%. It also gave a residual activity [31] of 98.2%, a residual activity [32] of 100% and a residual activity [33] of 90.8%. It also gave a residual activity [34] of 95.6%, a residual activity [35] of 88.9% and a residual activity [36] of 70.9%. The residual activity [37] was 102%, the residual activity [38] was 99.1% and the residual activity [39] was 97.4%. It also gave a residual activity [40] of 101%, a residual activity [41] of 96.6% and a residual activity [42] of 100%.

Source: the kinase profiling compilation of Christmann-Franck et al. (2016)
